Assay results taken from patent US10828378B2, “Nucleic acid construct for expression of oxidative stress indicator and use thereof” (Riken, priority 2011, dated 2020).
Structures can show the parent of a compound that is named as a salt.

Tests used:
[1] = tested on: OKD48-Luc reporter (Keap1-Nrf2 pathway); assay: Dual luciferase assay using the OKD48-Luc reporter in HeLa cells; type: cell-based, human; details: for response of HeLa cells containing OKD48-Luc (luciferase assay): 8 h or 16 h, 10 μM ASN, 100 μM DEM, 2.5 μg/ml tunicamycin, 1 μM thapsigargin, 1 mM DTT, 100 μM etoposide, 100 μg/ml TTFA, FIG. 5A
Experimental: HeLa cells or HEK293T cells were cultured in a DMEM medium supplemented with 100 U/ml penicillin, 100 μg/ml streptomycin, and 10% fetal bovine serum at 37° C. in an atmosphere containing 5% CO2. The plasmid DNAs were inserted into the cells of each line using the calcium phosphate-DNA precipitation method. In order to test cellular response to agents, the cells were treated with 10 μM sodium arsenite (ASN), 100 μM diethyl maleate (DEM), 200 μM H2O2, 2.5 μg/ml tunicamycin, 1 μM thapsigargin, 1 mM DTT, 100 μM etoposide, or 100 μg/ml thenoyltrifluoroacetone (TTFA) over varying times.
In dual luciferase assay using the OKD48-Luc reporter, phRL-TK (Promega Corp.) was used as an internal control. The HeLa cells were seeded on a 24-well plate and then transfected with the plasmid DNAs. At 24 hours after the transfection, the cells were lysed for luciferase assay. Each reporter activity was measured using a luciferase assay system (Promega Corp.) and a luminometer (Berthold Japan Co., Ltd.). The results were shown as mean±SEM of three experiments. Each value was indicated in terms of fold induction. This fold induction was normalized for that of an untreated sample (NT) (FIG. 5A), an untreated sample (NT) free from Nrf2 overexpression (FIG. 5D), or an untreated sample (NT) free from Keap1 overexpression (FIG. 5E). In this calculation, the fold induction of each NT was defined as 1.0.

OKD48-Venus reporter = assay: Fluorescence imaging of OKD48-Venus reporter in HEK293T cells; type: cell-based, human; details: 8 h treatment, FIG. 7A
Experimental: HEK293T cells were transfected with the OKD48-Venus construct and then treated for 8 hours in the presence or absence of sodium arsenite (ASN) or diethyl maleate. Their fluorescence images were obtained together with phase-contrast images. […] HEK293T cells were transfected with the OKD48-Venus construct and then treated for 8 hours in the presence or absence of sodium arsenite (ASN), diethyl maleate (DEM), H2O2, tunicamycin (Tun), thapsigargin (Tg), dithiothreitol (DTT), etoposide (Etp), or thenoyltrifluoroacetone (TTFA). Fluorescence from their cell lysates was measured and normalized for luciferase in the cotransfected cells. In the diagram, n.d. represents not detected. […] Their cell lysates were analyzed by Western blotting using an anti-GFP antibody or an anti-GAPDH antibody. […]
In order to take images of the cells, the HEK293T cells were seeded over a 6-well plate and then transfected with the plasmid DNAs. At 24 hours after the transfection, fluorescence images were obtained using FSX100 (Olympus Corp.). In order to measure the fluorescence of cell lysates, the cells were lysed in a digitonin buffer (50 mM Tris-HCl (pH 7.5), 1 mM EDTA, 10 mM EGTA, and 10 μM digitonin) at 37° C. for 30 minutes. […] The fluorescence intensity of each sample was normalized against the activity of luciferase derived from the cotransfected cells. […]

endogenous Nrf2 = assay: Western blot of endogenous Nrf2 in HeLa cells; type: cell-based, human; details: 8 h or 16 h treatment, FIG. 5C
Experimental: (§1) HeLa cells were transfected with the OKD48 construct. Luciferase assay was conducted after treatment for 8 hours or 16 hours in the presence or absence of different stressors (sodium arsenite (ASN), diethyl maleate (DEM), H2O2, tunicamycin (Tun), thapsigargin (Tg), dithiothreitol (DTT), etoposide (Etp), and thenoyltrifluoroacetone (TTFA)). […] HEK293T cells were transfected with the OKD48 construct and treated for 8 hours in the presence or absence of different stressors. The cell lysates were analyzed by Western blotting using an anti-Luc antibody or an anti-GAPDH antibody. […] HeLa cells were treated for 8 hours or 16 hours in the presence or absence of different stressors. Then, the cell lysates were analyzed by Western blotting using an anti-Luc antibody or an anti-GAPDH antibody. […]
(§2) The cells were lysed in an SDS sample buffer (50 mM Tris-HCl (pH 6.8), 2% SDS, 50 mM DTT, 10% glycerol, and 1 μg/ml bromophenol blue). […] After the electrophoresis, the proteins were electrically transferred to a polyvinylidene fluoride porous membrane and immunologically detected by a standard approach using a monoclonal antibody against luciferase (Promega Corp.), a monoclonal antibody against GFP (Nacalai Tesque, Inc.), a monoclonal antibody against GAPDH (Cell Signaling Technology, Inc.), or a polyclonal antibody against Nrf2 (Santa Cruz Biotechnology, Inc.).

OKD48-Luc = assay: Western blot of OKD48-Luc protein with anti-Luc antibody in HEK293T cells; type: cell-based, human; details: 8 h treatment, FIG. 5B
Experimental: as §1, §2

OKD48-transgenic mouse = assay: In vivo luminescence imaging of OKD48-transgenic mouse; details: 12.5 mg/kg intraperitoneal, 6 hours later
Experimental: The 4.5-kb Spel-SfiI fragment of p(3×ARE)TKbasal-hNrf2(1-433)-GL4-Flag was microinjected as a transgene into the fertilized eggs of a C57BL/6 mouse. […] The obtained mouse was used for in vivo imaging assay. After intraperitoneal injection of D-luciferin (4.5 mg), the mouse was analyzed according to a standard protocol using an in vivo imaging system IVIS (Xenogen Corp.). The experimental protocol involving the animal was approved by the animal research committee of RIKEN (Japan).
In order to monitor oxidative stress in vivo, an OKD48-transgenic mouse having a 3×ARE-driven Nrf2(1-433)-Luc expression gene was prepared. In order to confirm that cells placed under oxidative stress were able to be effectively used in vivo, ASN inducing oxidative stress in various tissues or organs was intraperitoneally injected (12.5 mg/kg) to a transgenic mouse.

For `O=C(CC(=O)C(F)(F)F)c1cccs1` [thenoyltrifluoroacetone], the “response of HeLa cells containing OKD48-Luc (luciferase assay)” value (shortened to “response”) [1] was “rarely activated”.
With `CCOC(=O)/C=C\C(=O)OCC` [DEM, diethyl maleate] the “response” value [1] was “specifically responded”, the “fluorescence of OKD48-Venus under microscopic observation” value (OKD48-Venus reporter) was “emitted fluorescence” and the “induction of endogenous Nrf2 (Western blot)” value (endogenous Nrf2) was “significantly induced”. For the same compound, the “OKD48-Luc at the protein level (Western blot, anti-Luc antibody)” value (OKD48-Luc) was “rise”.
For `C/C=C(/C)C(=O)O[C@H]1C(C)=C2[C@H]([C@@H]1OC(=O)CCCCCCC)[C@@](C)(OC(C)=O)C[C@H](OC(=O)CCC)[C@@]1(O)[C@H]2OC(=O)[C@@]1(C)O` [thapsigargin], the “response” value [1] was “rarely activated”.
For tunicamycin, the “response” value [1] was “rarely activated”.
In the case of `O[C@H](CS)[C@H](O)CS` (racemic) [dithiothreitol], the “response” value [1] is reported as “rarely activated”.
`O=[As]O` [ASN, sodium arsenite] was tested, and the “activity of OKD48-Luc under Nrf2 overexpression, effect of stressor treatment” value ([1]; HeLa cells with Nrf2 overexpression, 8 h treatment, FIG. 5D) was “slightly increased”, the “response” value [1] was “specifically responded” and the “fluorescence of OKD48-Venus under microscopic observation” value (OKD48-Venus reporter) was “emitted fluorescence”. The “induction of endogenous Nrf2 (Western blot)” value (endogenous Nrf2) was “significantly induced”, the “OKD48-Luc at the protein level (Western blot, anti-Luc antibody)” value (OKD48-Luc) was “rise” and the “luminescence in the liver” value (OKD48-transgenic mouse; abdominal section, FIG. 8) was “strong luminescence”. The “luminescence in other tissues or organs (e.g., stomach and kidney)” value (OKD48-transgenic mouse; data not shown) was “detected to some extent”.
With `COc1cc([C@@H]2c3cc4c(cc3[C@@H](O[C@@H]3O[C@@H]5CO[C@@H](C)O[C@H]5[C@H](O)[C@H]3O)[C@H]3COC(=O)[C@H]23)OCO4)cc(OC)c1O` [etoposide] the “response” value [1] was “rarely activated”.
